US20120190751A1, “COMPOUNDS FOR TREATMENTS OF INFLAMMATION” (ANA-MAR AB, priority 2009, published 2012)

Key:
formalin-induced pain = assay: Formalin test, inflammatory pain model; format: in vivo, rat; conditions: 30 mg/kg orally 60 min before formalin
Source text: Inflammatory pain is associated with tissue damage and the resulting inflammatory process is related to conditions such as arthritis and many autoimmune disease states. The formalin test in rats is a widely used tool when studying inflammatory pain in animals (Dubuisson, D., and Dennis, S. G. (1977), Pain 4:161-174; Wheeler-Aceto, H., et al. (1990), Pain 40:229-238). This model allows the study of two different types of pain that appears in two separate phases: phase 1 which is a direct stimulation of the nerve by the formalin and thus resembles the acute pain, followed by phase 2 which is an inflammatory-reaction induced pain similar to the pain in, e.g., arthritis. […]
In accordance with the literature (Sufka K J, et al., Eur J Pain (1998), 2(4):351-8; Maione S, et al., Br. J. Pharmacol. 2007; 150:766-781), nociceptive response was monitored in consecutive 5-min periods for 60 min following formalin injection. In particular, nociceptive responses were recorded by measuring the cumulative time of lifting, licking, shaking and flinching of the injected paw per unit time (5 minutes). The nociceptive response was measured both as every 5 minutes and as total time of the first phase (0-15 min) and the second phase (15-60 min). […]

5-HT3 receptor = molecular target: T1, 5-HT3 receptor (Homo sapiens, UniProt P46098); assay: Radio-ligand binding assay 5-HT3; conditions: 10 μM compound; [3H] GR65630 35 nM; human rec. HEK293 cells
T1 sequence (P46098 24-478): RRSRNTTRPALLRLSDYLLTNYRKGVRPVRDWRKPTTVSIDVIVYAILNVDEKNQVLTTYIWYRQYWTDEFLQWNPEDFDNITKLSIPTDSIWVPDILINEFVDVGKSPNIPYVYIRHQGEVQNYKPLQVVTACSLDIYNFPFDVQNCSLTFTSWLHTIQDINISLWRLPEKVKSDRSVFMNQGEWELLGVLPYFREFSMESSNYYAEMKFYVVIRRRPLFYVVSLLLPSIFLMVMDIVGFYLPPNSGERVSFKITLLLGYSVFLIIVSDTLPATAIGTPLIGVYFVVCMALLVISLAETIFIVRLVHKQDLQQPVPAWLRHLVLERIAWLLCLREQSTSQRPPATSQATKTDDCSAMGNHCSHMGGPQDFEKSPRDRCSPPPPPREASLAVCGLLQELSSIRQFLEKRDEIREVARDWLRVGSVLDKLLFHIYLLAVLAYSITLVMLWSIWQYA
Method: (§1) Determination of binding affinities for various 5-HT receptors was performed by radio-ligand binding assays. Briefly, tissue or cells expressing the receptor of interest were suspended in incubation buffer and radio-ligands and 10 μM N-(2-chloro-3,4-dimethoxybenzylidene-amino)guanidine were added. After incubation, separation of bound and free radio-ligand was done by multiple washings with buffer.
(§2) The results were presented as the percent inhibition of specific binding. The IC50 values were determined by a non-linear least square regression analysis using MathIQ™ (ID Business Solution Ltd., UK). The inhibition constants (Ki) were calculated using the equation of Cheng and Prusoff (Cheng Y, Prusoff W H, Biochem. Pharmacol. 22:3099-3108, 1973) using the observed IC50 of the tested compound, the concentration of radioligand employed in the assay and the historical values for the KD of the ligand.

5-HT2C receptor = molecular target: T2, 5-HT2C receptor (Homo sapiens, UniProt P28335); assay: Radio-ligand binding assay 5-HT2C
T2 sequence (P28335 33-458): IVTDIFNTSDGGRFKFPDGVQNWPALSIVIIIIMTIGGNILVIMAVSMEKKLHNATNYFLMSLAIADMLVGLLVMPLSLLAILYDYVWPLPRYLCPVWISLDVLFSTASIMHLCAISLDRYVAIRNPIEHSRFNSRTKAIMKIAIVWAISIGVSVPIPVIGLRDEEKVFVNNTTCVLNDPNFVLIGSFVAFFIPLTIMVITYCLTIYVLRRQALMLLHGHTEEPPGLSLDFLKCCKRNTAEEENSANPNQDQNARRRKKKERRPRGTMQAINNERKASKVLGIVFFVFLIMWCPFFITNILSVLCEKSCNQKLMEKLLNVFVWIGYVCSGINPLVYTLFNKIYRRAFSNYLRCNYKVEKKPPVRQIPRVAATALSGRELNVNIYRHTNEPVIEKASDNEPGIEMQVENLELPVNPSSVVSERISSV
Method: as §1, §2

## COc1ccc(C=NNC(=N)N)c(Cl)c1OC [N-(2-chloro-3,4-dimethoxybenzylideneamino)guanidine]
formalin-induced pain
  nociceptive response, first phase (0-15 min): without significantly influencing
formalin-induced pain; FIG. 6
  nociceptive response, phase 2 (15-60 min), inflammatory pain: significantly reduced the inflammatory pain response
5-HT3 receptor
  inhibition at 10 µM: 3.3%
5-HT2C receptor
  inhibition at 10 µM: 80%
5-HT2C receptor; 10 different concentrations, Cheng-Prusoff, FIG. 1
  Ki: 880 nM
